Measured values: patent publication US20250145665A1, “MACROCYCLIC PEPTIDES USEFUL AS MODULATORS OF TNF ALPHA” (Bristol-Myers Squibb Company, priority 2023, published 2025)
Starred links: 1 amine or outer side, 2 acyl side, 3 side chain; linkers in the order of their positions; H or OH if unused. Positions of bridges follow the written chain, without caps; N, C: chain ends. Non-standard residues stand in square brackets, D forms with d. Residues, ends and D or L forms follow the SMILES beside them. *: point of attachment. Bip(4'-NHCO-C6H4-3-CH2COOH) = N[C@@H](Cc1ccc(-c2ccc(NC(=O)c3cccc(CC(=O)O)c3)cc2)cc1)C(=O)O; X43 = O=C(O)[C@@H]1CCC[C@H](C(=O)Nc2ccc(-c3ccc(C[C@H](N[*:1])C(=O)[*:2])cc3)cc2)C1; X21 = N=C(NCCC[C@@H](N[*:1])C(=O)[*:2])NC[C@H](O)[C@@H](O)[C@@H](O)CO; dArg(ω-(2S)-2,3-diOHpropyl) = N=C(NCCC[C@@H](N)C(=O)O)NC[C@H](O)CO; Bip(4'-NH) = O=C([C@H](Cc1ccc(-c2ccc(N[*:3])cc2)cc1)N[*:1])[*:2]; dArg(ω-Bn(3-CH2OH)) = N=C(NCCC[C@@H](N)C(=O)O)NCc1cccc(CO)c1; Indazole3carbonyl(1-CH2COOH) = O=C(O)Cn1nc(C(=O)*)c2ccccc21; Bip(4'-COOH) = N[C@@H](Cc1ccc(-c2ccc(C(=O)O)cc2)cc1)C(=O)O; Bip(4'-NHAc) = CC(=O)Nc1ccc(-c2ccc(C[C@H](N)C(=O)O)cc2)cc1; Indole3carbonyl(1-CH2COOH) = O=C(O)Cn1cc(C(=O)*)c2ccccc21; Ala(morpholin-4-yl) = N[C@@H](CN1CCOCC1)C(=O)O; Benzoyl(3-OCH2COOH) = O=C(O)COc1cccc(C(=O)*)c1; Phe(3-CONH2) = NC(=O)c1cccc(C[C@H](N)C(=O)O)c1; Bip = N[C@@H](Cc1ccc(-c2ccccc2)cc1)C(=O)O; X3 = O=C(O)c1cccc(Oc2ccccc2C(=O)*)c1; X75 = O=C(O)Cn1ccc2c(C(=O)*)cccc21; Tic = O=C(O)[C@@H]1Cc2ccccc2CN1; 2Thi = N[C@@H](Cc1cccs1)C(=O)O; Cha = N[C@@H](CC1CCCCC1)C(=O)O; X20 = O=C(c1csc(-c2ccncc2)n1)*; Tle = CC(C)(C)[C@H](N)C(=O)O; Aze = O=C(O)[C@@H]1CCN1; Sar = CNCC(=O)O

Molecular target: TNFα (Homo sapiens, UniProt P01375)
Sequence (P01375 77-233 limits assumed): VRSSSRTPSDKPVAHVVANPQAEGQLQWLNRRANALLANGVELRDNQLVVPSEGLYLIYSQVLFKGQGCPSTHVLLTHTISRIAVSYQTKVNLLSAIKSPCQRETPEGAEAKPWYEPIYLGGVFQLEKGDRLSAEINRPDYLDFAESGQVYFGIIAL
Assay: TNF-Induced HEK-Blue Assay
Format: cell-based
Conditions: not given

SMILES | IC50 [nM]
CC(C)C[C@@H]1NC(=O)[C@H](Cc2cccc(C(N)=O)c2)NC(=O)[C@H](C(C)C)NC(=O)[C@@H]2CCCN2C(=O)[C@H](C(C)C)NC(=O)[C@@H](CCCNC(=N)NC[C@H](O)CO)NC(=O)[C@H](CC(=O)O)NC(=O)[C@H](Cc2ccc(O)cc2)NC(=O)CN(C)C(=O)[C@H](Cc2ccc(-c3ccc(NC(=O)c4cn(CC(=O)O)c5ccccc45)cc3)cc2)NC(=O)[C@H](Cc2ccc(-c3ccccc3)cc2)NC(=O)[C@H](CN2CCOCC2)NC(=O)CSC[C@@H](C(=O)NCC(N)=O)NC1=O [Example 547] ({CH2CO}-[Ala(morpholin-4-yl)][Bip][Bip(4'-NH)](Indole3carbonyl(1-CH2COOH))[Sar]YD[dArg(ω-(2S)-2,3-diOHpropyl)]VPV[Phe(3-CONH2)]LCG-NH2; thioether N-13) | < 50
CC[C@H](C)[C@@H]1NC(=O)[C@@H](CCCNC(=N)NC[C@H](O)[C@@H](O)[C@@H](O)CO)NC(=O)[C@H](CC(=O)O)NC(=O)[C@@H]2CCCN2C(=O)CN(C)C(=O)[C@H](Cc2ccc(-c3ccc(NC(=O)c4nn(CC(=O)O)c5ccccc45)cc3)cc2)NC(=O)[C@H](Cc2ccc(-c3ccccc3)cc2)NC(=O)[C@H](CN2CCOCC2)NC(=O)CSC[C@@H](C(=O)NCC(N)=O)NC(=O)[C@H](CC(C)C)NC(=O)[C@H](Cc2cnc[nH]2)NC(=O)[C@H](C(C)C)NC(=O)[C@@H]2CCCN2C1=O [Example 599] ({CH2CO}-[Ala(morpholin-4-yl)][Bip][Bip(4'-NH)](Indazole3carbonyl(1-CH2COOH))[Sar]PD[X21]IPVHLCG-NH2; thioether N-13) | < 50

Same assay, conditions: HEK-Blue-CD40L cells, NF-kB-driven secreted alkaline phosphatase reporter; TNFα 0.5 ng/ml; 18 h; read-out: TNF induced HEK-Blue assay IC50 value

SMILES | IC50 [nM]
CC[C@H](C)[C@@H]1NC(=O)[C@@H](CCCNC(=N)N)NC(=O)[C@H](CC(=O)O)NC(=O)[C@@H]2CCCN2C(=O)CN(C)C(=O)[C@H](Cc2ccc(-c3ccc(NC(=O)c4cccc(OCC(=O)O)c4)cc3)cc2)NC(=O)[C@H](Cc2ccc(-c3ccc(C(=O)O)cc3)cc2)NC(=O)[C@H](CC2CCCCC2)NC(=O)CSC[C@@H](C(=O)NCC(N)=O)NC(=O)[C@H](CC(C)C)NC(=O)[C@H](Cc2cnc[nH]2)NC(=O)[C@H](C(C)C)NC(=O)[C@@H]2CCCN2C1=O [Example 573] ({CH2CO}-[Cha][Bip(4'-COOH)][Bip(4'-NH)](Benzoyl(3-OCH2COOH))[Sar]PD[dR]IPVHLCG-NH2; thioether N-13) | 50 to 200
CC(=O)Nc1ccc(-c2ccc(C[C@@H]3NC(=O)[C@H](Cc4ccc(-c5ccccc5)cc4)NC(=O)[C@H](Cc4ccccc4)NC(=O)CSC[C@@H](C(=O)NCC(N)=O)NC(=O)[C@H](CC(C)C)NC(=O)[C@H](CCCNC(=N)N)NC(=O)[C@H](C(C)C)NC(=O)[C@@H]4CCCN4C(=O)[C@H](C(C)C)NC(=O)[C@H](CCCNC(=N)N)NC(=O)[C@H](CC(=O)O)NC(=O)[C@@H]4CCCN4C(=O)CN(C)C3=O)cc2)cc1 [Example 37] ({CH2CO}-F[Bip][Bip(4'-NHAc)][Sar]PDRVPVRLCG-NH2; thioether N-13) | 200 to 2000
CC[C@H](C)[C@@H]1NC(=O)[C@@H]2CCN2C(=O)[C@H]([C@@H](C)CC)NC(=O)[C@@H](CCCNC(=N)N)NC(=O)[C@H](CC(=O)O)NC(=O)[C@H](Cc2ccc(O)cc2)NC(=O)CN(C)C(=O)[C@H](Cc2ccc(-c3ccc(NC(C)=O)cc3)cc2)NC(=O)[C@H](Cc2ccc(-c3ccccc3)cc2)NC(=O)[C@H](C(C)(C)C)NC(=O)CSC[C@@H](C(=O)NCC(N)=O)NC(=O)[C@H](CC(C)C)NC(=O)[C@H](Cc2ccc(O)cc2)NC1=O [Example 294] ({CH2CO}-[Tle][Bip][Bip(4'-NHAc)][Sar]YD[dR]I[Aze]IYLCG-NH2; thioether N-13) | < 50
CC(=O)Nc1ccc(-c2ccc(C[C@@H]3NC(=O)[C@H](Cc4ccc(-c5ccccc5)cc4)NC(=O)[C@H](CC4CCCCC4)NC(=O)CSC[C@@H](C(=O)NCC(N)=O)NC(=O)[C@H](CC(C)C)NC(=O)[C@H](Cc4cccs4)NC(=O)[C@H](C(C)C)NC(=O)[C@@H]4CCCN4C(=O)[C@H](C(C)C)NC(=O)[C@@H](CCCNC(=N)N)NC(=O)[C@H](CC(=O)O)NC(=O)[C@@H]4CCCN4C(=O)CN(C)C3=O)cc2)cc1 [Example 289] ({CH2CO}-[Cha][Bip][Bip(4'-NHAc)][Sar]PD[dR]VPV[2Thi]LCG-NH2; thioether N-13) | 50 to 200
CC[C@H](C)[C@@H]1NC(=O)[C@@H](CCCNC(=N)NCc2cccc(CO)c2)NC(=O)[C@H](CC(=O)O)NC(=O)[C@H](Cc2cnc[nH]2)NC(=O)CN(C)C(=O)[C@H](Cc2ccc(-c3ccc(NC(=O)c4cccc(CC(=O)O)c4)cc3)cc2)NC(=O)[C@H](Cc2ccc(-c3ccccc3)cc2)NC(=O)[C@H](CC2CCCCC2)NC(=O)CSC[C@@H](C(=O)NCC(N)=O)NC(=O)[C@H](CC(C)C)NC(=O)[C@H](Cc2c[nH]cn2)NC(=O)[C@H](C(C)C)NC(=O)[C@@H]2CCCN2C1=O [Example 504] ({CH2CO}-[Cha][Bip][Bip(4'-NHCO-C6H4-3-CH2COOH)][Sar]HD[dArg(ω-Bn(3-CH2OH))]IPVHLCG-NH2; thioether N-13) | < 50
CC(=O)Nc1ccc(-c2ccc(C[C@@H]3NC(=O)[C@H](Cc4ccc(-c5ccc(C(=O)O)cc5)cc4)NC(=O)[C@H](CC4CCCCC4)NC(=O)CSC[C@@H](C(=O)N[C@@H](CCC(N)=O)C(N)=O)NC(=O)[C@H](CC(C)C)NC(=O)[C@H](Cc4ccc(O)cc4)NC(=O)[C@H](C(C)C)NC(=O)[C@@H]4CCCN4C(=O)[C@H](C(C)C)NC(=O)[C@@H](CCCNC(=N)N)NC(=O)[C@H](CC(=O)O)NC(=O)[C@@H]4CCCN4C(=O)CN(C)C3=O)cc2)cc1 [Example 244] ({CH2CO}-[Cha][Bip(4'-COOH)][Bip(4'-NHAc)][Sar]PD[dR]VPVYLCQ-NH2; thioether N-13) | 200 to 2000
CC[C@H](C)[C@@H]1NC(=O)[C@@H](CCCNC(=N)N)NC(=O)[C@H](CC(=O)O)NC(=O)[C@H](Cc2cnc[nH]2)NC(=O)CN(C)C(=O)[C@H](Cc2ccc(-c3ccc(NC(=O)c4cccc(OCC(=O)O)c4)cc3)cc2)NC(=O)[C@H](Cc2ccc(-c3ccc(C(=O)O)cc3)cc2)NC(=O)[C@H](CC2CCCCC2)NC(=O)CSC[C@@H](C(=O)NCC(N)=O)NC(=O)[C@H](CC(C)C)NC(=O)[C@H](Cc2cnc[nH]2)NC(=O)[C@H](C(C)C)NC(=O)[C@@H]2Cc3ccccc3CN2C1=O [Example 372] ({CH2CO}-[Cha][Bip(4'-COOH)][Bip(4'-NH)](Benzoyl(3-OCH2COOH))[Sar]HD[dR]I[Tic]VHLCG-NH2; thioether N-13) | < 50
CC(C)C[C@@H]1NC(=O)[C@H](CCCNC(=N)N)NC(=O)[C@H](C(C)C)NC(=O)[C@@H]2CCCN2C(=O)[C@H](C(C)C)NC(=O)[C@@H](CCCNC(=N)N)NC(=O)[C@H](CC(=O)O)NC(=O)[C@@H]2CCCN2C(=O)CN(C)C(=O)[C@H](Cc2ccc(-c3ccccc3)cc2)NC(=O)[C@H](Cc2ccc(-c3ccc(C(=O)O)cc3)cc2)NC(=O)[C@H](CN2CCOCC2)NC(=O)CSC[C@@H](C(=O)NCC(N)=O)NC1=O [Example 123] ({CH2CO}-[Ala(morpholin-4-yl)][Bip(4'-COOH)][Bip][Sar]PD[dR]VPVRLCG-NH2; thioether N-13) | 50 to 200
CC[C@H](C)[C@@H]1NC(=O)[C@@H](CCCNC(=N)N)NC(=O)[C@H](CC(=O)O)NC(=O)[C@H](Cc2cnc[nH]2)NC(=O)CN(C)C(=O)[C@H](Cc2ccc(-c3ccc(NC(=O)c4ccccc4Oc4cccc(C(=O)O)c4)cc3)cc2)NC(=O)[C@H](Cc2ccc(-c3ccccc3)cc2)NC(=O)[C@H](CC2CCCCC2)NC(=O)CSC[C@@H](C(=O)NCC(N)=O)NC(=O)[C@H](CC(C)C)NC(=O)[C@H](Cc2cnc[nH]2)NC(=O)[C@H](C(C)C)NC(=O)[C@@H]2CCCN2C1=O [Example 354] ({CH2CO}-[Cha][Bip][Bip(4'-NH)](X3)[Sar]HD[dR]IPVHLCG-NH2; thioether N-13) | 50 to 200
CC[C@H](C)[C@@H]1NC(=O)[C@@H]2CCCN2C(=O)[C@H]([C@@H](C)CC)NC(=O)[C@@H](CCCNC(=N)N)NC(=O)[C@H](CC(=O)O)NC(=O)[C@H](Cc2ccccc2)NC(=O)CN(C)C(=O)[C@H](Cc2ccc(-c3ccc(NC(=O)c4csc(-c5ccncc5)n4)cc3)cc2)NC(=O)[C@H](Cc2ccc(-c3ccc(C(=O)O)cc3)cc2)NC(=O)[C@H](C(C)(C)C)NC(=O)CSC[C@@H](C(=O)NCC(N)=O)NC(=O)[C@H](CC(C)C)NC(=O)[C@H](Cc2cnc[nH]2)NC1=O [Example 353] ({CH2CO}-[Tle][Bip(4'-COOH)][Bip(4'-NH)](X20)[Sar]FD[dR]IPIHLCG-NH2; thioether N-13) | < 50
CC(C)C[C@@H]1NC(=O)[C@H](CCCNC(=N)N)NC(=O)[C@H](C(C)C)NC(=O)[C@@H]2CCCN2C(=O)[C@H](C(C)C)NC(=O)[C@@H](CCCNC(=N)N)NC(=O)[C@H](CC(=O)O)NC(=O)[C@@H]2CCCN2C(=O)CN(C)C(=O)[C@H](Cc2ccc(-c3ccc(NC(=O)c4cccc5c4ccn5CC(=O)O)cc3)cc2)NC(=O)[C@H](Cc2ccc(-c3ccccc3)cc2)NC(=O)[C@H](CN2CCOCC2)NC(=O)CSC[C@@H](C(=O)NCC(N)=O)NC1=O [Example 382] ({CH2CO}-[Ala(morpholin-4-yl)][Bip][Bip(4'-NH)](X75)[Sar]PD[dR]VPVRLCG-NH2; thioether N-13) | < 50
CC[C@H](C)[C@@H]1NC(=O)[C@@H](CCCNC(=N)N)NC(=O)[C@H](CC(=O)O)NC(=O)[C@H](Cc2cnc[nH]2)NC(=O)CN(C)C(=O)[C@H](Cc2ccc(-c3ccc(NC(=O)[C@H]4CCC[C@@H](C(=O)O)C4)cc3)cc2)NC(=O)[C@H](Cc2ccc(-c3ccccc3)cc2)NC(=O)[C@H](CC2CCCCC2)NC(=O)CSC[C@@H](C(=O)NCC(N)=O)NC(=O)[C@H](CC(C)C)NC(=O)[C@H](Cc2cnc[nH]2)NC(=O)[C@H](C(C)C)NC(=O)[C@@H]2CCCN2C1=O [Example 446] ({CH2CO}-[Cha][Bip][X43][Sar]HD[dR]IPVHLCG-NH2; thioether N-13) | 50 to 200
CC[C@H](C)[C@@H]1NC(=O)[C@@H](CCCNC(=N)N)NC(=O)[C@H](CC(=O)O)NC(=O)[C@H](Cc2cnc[nH]2)NC(=O)CN(C)C(=O)[C@H](Cc2ccc(-c3ccc(NC(=O)c4cccc(CC(=O)O)c4)cc3)cc2)NC(=O)[C@H](Cc2ccc(-c3ccccc3)cc2)NC(=O)[C@H](CN2CCOCC2)NC(=O)CSC[C@@H](C(=O)NCC(N)=O)NC(=O)[C@H](CC(C)C)NC(=O)[C@H](Cc2cnc[nH]2)NC(=O)[C@H](C(C)C)NC(=O)[C@@H]2CCCN2C1=O [Example 481] ({CH2CO}-[Ala(morpholin-4-yl)][Bip][Bip(4'-NHCO-C6H4-3-CH2COOH)][Sar]HD[dR]IPVHLCG-NH2; thioether N-13) | < 50
